Results published in patent US8097252B2, “Methods and compositions for administering therapeutic and diagnostic agents” (Immunomedics, Inc., priority 2003, dated 2012).
Starred links: 1 amine or outer side, 2 acyl side, 3 side chain; linkers in the order of their positions; H or OH if unused. Non-standard residues stand in square brackets, D forms with d. Residues, ends and D or L forms follow the SMILES beside them. Groups on a side chain read outwards from the residue. *: point of attachment. DTPA = O=C(O)CN(CCN(CC(=O)O)CC(=O)O)CCN(CC(=O)O)CC(=O)*; NH(2-(imidazol-4-yl)ethyl) = c1ncc(CCN*)[nH]1; Suc = O=C(CCC(=O)[*:2])[*:1]

What was measured:
B-cell lymphoma = assay: Therapy of B-cell lymphoma patient with internalization by cross-linking; assay type: in vivo
Experimental: A patient having B-cell lymphoma with extensive node involvement is infused intraveneously with a sterile, pyrogen-free solution containing a target dose of bispecific hA20Fab-679scFv prepared as described in U.S. application Ser. Nos. 09/337,756 and 60/360,229. After 24 hours, the patient then is infused intraveneously with a sterile, pyrogen-free PBS solution that contains a therapeutic dose of DTPA-Gln-Ala-Lys(HSG)-D-[I-131Tyr]-Lys(HSG)-NH2. After 24 hours the patient then is intraveneously infused with 50 mg of sterile, pyrogen-free PBS solution of bispecific hLL1IgG[734scFv]. […] This administration is illustrated schematically in FIG. 6-9.

[1] = Stability of 111In IMP 272 in fresh human serum; assay type: in vitro ADME; conditions: 37° C.
Experimental: (§1) ^111InCl3 (30.4 μL) was added to 500 μL of DI H2O. This solution was added to the prepared vial of IMP 272 and allowed to sit for approximately 20 minutes at room temperature. An additional 600 μL of cold In Acetate Buffer (1.0×10^−4M InCl3, 0.5M NaOAc, pH 6.5) was then added to the same vial and allowed to sit for an additional 45 minutes. The total volume was 1130 μL with a molar quantity of […] of IMP 272 yielding a concentration of 8.777×10^−6M. After the labeling was completed, the peptide was tested for stability in fresh human and nude mouse serum over 24 hrs. The peptide was also tested for binding to humanized antibodies; m679×hMN14, and, m734×hMN14.
^111In IMP 272, 60 μL, was added to 540 μL fresh human serum. This was vortexed and placed under a constant temperature of 37° C. The peptide concentration for this mixture was 8.777×10^−7M.

[2] = Stability of 111In IMP 272 in fresh nude mouse serum; assay type: in vitro ADME; conditions: 37° C., 24 hr
Experimental: as §1
^111In IMP 272, 44 μL, was added to 400 μl fresh nude mouse serum. This was vortexed and placed under a constant temperature of 37° C. The peptide concentration for this mixture was 8.698×10^−7M.

[3] = Biodistribution in nude mice bearing GW-39 xenografts (lock and chase); assay type: in vivo; conditions: mouse, tumor (GW-39 xenograft), iv, 76 ng, total radioactivity, 3 hrs post-IMP-272, assumption, read-out: amount in tumor
Experimental: To study the half-life of a pretargeted defined chemical substance (DCS), known as IMP-272 on a tumor, the following experiment is performed in nude mice bearing GW-39 human colorectal cancer xenografts. Animals receive three injections as follows: first injection of anti-CEA BS1.5HP diabody (hMN-14×679) followed 24 hours later with IMP-272, which is followed 3 hours later by the anti-In-DTPA F(ab′)2 antibody, 734. BS1.5HP is labeled with ^125I and the IMP-272 is labeled with ^111In. The synthesis and use of this diabody is disclosed in Clin. Cancer Res. 9:3886s-3896s (2003), and is herein incorporated in its entirety by reference. Known standard molecular biology methods were used to prepare the BS1.5HP
To test for maximum cross-linking of peptide on the surface of the tumor, the total protein dose of 734 F(ab′)2 injected ranges from 10 μg to 100 μg. Four groups of mice are administered 10 μCi ^125I-BS1.5HP (27 μg, 5.0×10^−10 moles) followed 24 hours later by 25 μCi ^111In-IMP-272 (5.0×10^−11 moles) for a bispecific:IMP-272 ratio of 10:1. IMP-272 is administered 3 hours before the administration of 734 F(ab′)2 to target the tumor and clear from the blood. […]
At the specified necropsy time, 5 animals are anesthetized, bled by cardiac puncture followed by cervical dislocation. […] Tissues is counted in a calibrated gamma counter for ^111In and ^125I. […]

| Compound | size of the lymphoma-involved nodes (B-cell lymphoma; CAT scans over the next few months) | localization and retention of I-131 in lymphoma involved nodes (B-cell lymphoma; radioimmunodetection) | stability in human serum (conclusion) [1] | peptide state after incubation in human serum ([1]; 1 hour) | binding to HSG after incubation in human serum ([1]; 24 hr) | binding to one of the two HSG's compromised ([1]; 24 hr, size exclusion HPLC) | stability in mouse serum [2] | tissue uptake at 3 h [3] |
| --- | --- | --- | --- | --- | --- | --- | --- | --- |
| DTPA-Gln-Ala-Lys(HSG)-D-[I-131Tyr]-Lys(HSG)-NH2 | significant reduction | intensive localization and long retention |  |  |  |  |  |  |
| C[C@H](NC(=O)[C@H](CCC(N)=O)NC(=O)CN(CCN(CCN(CC(=O)O)CC(=O)O)CC(=O)O)CC(=O)O)C(=O)N[C@@H](CCCCNC(=O)CNC(=O)CCC(=O)NCCc1c[nH]cn1)C(=O)N[C@H](Cc1ccc(O)cc1)C(=O)N[C@@H](CCCCNC(=O)CNC(=O)CCC(=O)NCCc1c[nH]cn1)C(N)=O (111In complex, metal not drawn) [IMP 272, DTPA-Gln-Ala-Lys(HSG)-D-Tyr-Lys(HSG)-NH2] ({DTPA}-QAK([Gly-Suc-NH(2-(imidazol-4-yl)ethyl)])[dY]K([Gly-Suc-NH(2-(imidazol-4-yl)ethyl)])-NH2) |  |  | partially metabolized | intact | lost some of the binding to HSG | about 50% | stable | ~20 %ID/g |
